In patent publication US20220289732A1, “HETEROCYCLIC WDR5 INHIBITORS AS ANTI-CANCER COMPOUNDS” (NOVARTIS AG, priority 2019, published 2022):

What was measured:
MV4-11 cells = experiment: MV4-11 6-day cell growth CTG (CellTiter-Glo) assay; type: cell-based; conditions: Homo sapiens, MV4-11, 144 h, 6 days, read-out: (c) MLL/WDR5 cell proliferation assay//MLL/WDR5 proliferation MV4:11 Qualified AC50
Summary of the method: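 IC50 comes from a dose-response fit of % inhibition relative to DMSO controls, with viable cells measured by CellTiter-Glo luminescence. Compounds were tested over 12 points (1:3, starting at 50 μM final) on MV4-11 cells plated at 300/well and grown 6 days.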

[1] = molecular target: wild type MLL1 four-member complex (MLL1-4C) (Homo sapiens, UniProt P61964); experiment: MLL1 LC-MS assay (SAH production); type: biochemical; conditions: read-out: (b) MLL LCMS Peptide Val.v.1 Qualified AC50
Summary of the method: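 SAH formation, measured by LC-MS/MS after a TFA quench containing d4-SAH, was normalised to no-compound and no-enzyme controls and fitted to a dose-response curve for IC50. Reactions ran 120 min at rt (pH 8.0 Tris buffer) with final 30 nM MLL1 four-member complex, 2.5 μM SAM and 10 μM biotinylated H3[1-21] peptide, after a 20-min enzyme/SAM-compound preincubation.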

WDR5 = WDR5 (Homo sapiens, UniProt P61964); experiment: WDR5 HTRF binding assay; conditions: read-out: (a) WDR5 HTRF Pep Val v.1[Inhibitor/IC50]Qualified AC50
Summary of the method: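 In this HTRF displacement format, biotinylated MLL1 WIN peptide (3762-3773, 20 nM) binds WDR5 (6 nM) in 25 mM Hepes pH 7.5 with 100 mM NaCl, 2 mM DTT and 0.1% BSA for 20 min at rt. Detection used streptavidin-APC/anti-His-Eu for 1 hr. IC50 came from dose-response fits of normalized signal; 15 nM biotin-PEG-His peptide served as counter assay.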

AC50 [1] [µM]	IC50 (WDR5) [µM]	Compound	AC50 (MV4-11 cells) [µM]
0.01 to 1	0.01 to 1	CNc1nccn1Cc1cc2c(c(-c3cc(CO)cnc3Cl)c1)CCN(Cc1cccc(OC(F)F)c1)C2=O [Example 73, 5-(2-chloro-5-(hydroxymethyl)pyridin-3-yl)-2-(3-(difluoromethoxy)benzyl)-7-((2-(methylamino)-1H-imidazol-1-yl)methyl)-3,4-dihydroisoquinolin-1(2H)-one]	0.01 to 1
0.01 to 1	0.01 to 1	CNc1nccn1Cc1cc2c(c(-c3cc(CO)cnc3Cl)c1)CCN(Cc1ccc(F)c(OC(F)F)c1)C2=O [Example 74, 5-(2-chloro-5-(hydroxymethyl)pyridin-3-yl)-2-(3-(difluoromethoxy)-4-fluorobenzyl)-7-((2-(methylamino)-1H-imidazol-1-yl)methyl)-3,4-dihydroisoquinolin-1(2H)-one]	0.01 to 1
0.01 to 1	0.01 to 1	CNc1nccn1Cc1cc2c(c(-c3cn(C)nc3C#N)c1)CCN(Cc1ccc(F)c(OC)c1)C2=O [Example 77, 4-(2-(4-fluoro-3-methoxybenzyl)-7-((2-(methylamino)-1H-imidazol-1-yl)methyl)-1-oxo-1,2,3,4-tetrahydroisoquinolin-5-yl)-1-methyl-1H-pyrazole-3-carbonitrile]	0.01 to 1
0.01 to 1	0.01 to 1	CNc1nccn1Cc1cc2c(c(C3CC3)c1)CCN(Cc1cnc(F)c(OC)c1)C2=O [Example 79, 5-cyclopropyl-2-((6-fluoro-5-methoxypyridin-3-yl)methyl)-7-((2-(methylamino)-1H-imidazol-1-yl)methyl)-3,4-dihydroisoquinolin-1(2H)-one]	0.01 to 1
0.01 to 1	0.01 to 1	CCOc1cc(CN2CCc3c(cc(Cn4ccnc4NC)cc3C3CC3)C2=O)cnc1C#N [Example 84, 5-((5-cyclopropyl-7-((2-(methylamino)-1H-imidazol-1-yl)methyl)-1-oxo-3,4-dihydroisoquinolin-2(1H)-yl)methyl)-3-ethoxypicolinonitrile]	0.01 to 1
0.01 to 1	0.01 to 1	CCOc1cc(CN2CCc3c(cc(Cn4ccnc4NC)cc3C3CC3)C2=O)nn1C [Example 87, 5-cyclopropyl-2-((5-ethoxy-1-methyl-1H-pyrazol-3-yl)methyl)-7-((2-(methylamino)-1H-imidazol-1-yl)methyl)-3,4-dihydroisoquinolin-1(2H)-one]	0.01 to 1
0.01 to 1	0.01 to 1	CCOc1cc([C@H](C)N2CCc3c(cc(Cn4ccnc4NC)cc3C(F)F)C2=O)ncc1F [Example 91, (S)-5-(difluoromethyl)-2-(1-(4-ethoxy-5-fluoropyridin-2-yl)ethyl)-7-((2-(methylamino)-1H-imidazol-1-yl)methyl)-3,4-dihydroisoquinolin-1(2H)-one]	0.01 to 1
0.01 to 1	0.01 to 1	CNc1nccn1Cc1cc2c(c(C(F)F)c1)CCN([C@@H](C)c1cc(OC)c(F)cn1)C2=O [Example 92, (S)-5-(difluoromethyl)-2-(1-(5-fluoro-4-methoxypyridin-2-yl)ethyl)-7-((2-(methylamino)-1H-imidazol-1-yl)methyl)-3,4-dihydroisoquinolin-1(2H)-one]	0.01 to 1
0.01 to 1	0.01 to 1	CNc1nccn1Cc1cc2c(c(C(F)F)c1)CCN([C@@H](C)c1cnc(F)c(OC)c1)C2=O [Example 93, (S)-5-(difluoromethyl)-2-(1-(6-fluoro-5-methoxypyridin-3-yl)ethyl)-7-((2-(methylamino)-1H-imidazol-1-yl)methyl)-3,4-dihydroisoquinolin-1(2H)-one]	0.01 to 1
0.01 to 1	0.01 to 1	CCOc1cc([C@H](C)N2CCc3ccc(Cn4ccnc4NC)cc3C2=O)cnc1Cl [Example 95, (S)-2-(1-(6-chloro-5-ethoxypyridin-3-yl)ethyl)-7-((2-(methylamino)-1H-imidazol-1-yl)methyl)-3,4-dihydroisoquinolin-1(2H)-one]	0.01 to 1
0.01 to 1	0.01 to 1	CCOc1cc(CN2CCc3ccc(Cn4ccnc4NC)cc3C2=O)cnc1C#N [Example 96, 3-ethoxy-5-((7-((2-(methylamino)-1H-imidazol-1-yl)methyl)-1-oxo-3,4-dihydroisoquinolin-2(1H)-yl)methyl)picolinonitrile]	0.01 to 1

Continued, molecule first:

Compound	AC50 [1] [µM]	IC50 (WDR5) [µM]	AC50 (MV4-11 cells) [µM]
CCOc1cc([C@H](C)N2CCc3c(cc(Cn4ccnc4NC)cc3C3CC3)C2=O)cnc1C#N [Example 80, (S)-5-(1-(5-cyclopropyl-7-((2-(methylamino)-1H-imidazol-1-yl)methyl)-1-oxo-3,4-dihydroisoquinolin-2(1H)-yl)ethyl)-3-ethoxypicolinonitrile]	0.01 to 1	0.01 to 1	0.01 to 1
CCOc1cc([C@H](C)N2CCc3c(cc(Cn4ccnc4NC)cc3C3CC3)C2=O)ncc1F [Example 81, (S)-5-cyclopropyl-2-(1-(4-ethoxy-5-fluoropyridin-2-yl)ethyl)-7-((2-(methylamino)-1H-imidazol-1-yl)methyl)-3,4-dihydroisoquinolin-1(2H)-one]	0.01 to 1	0.01 to 1	0.01 to 1
CCOc1cc([C@@H](C)N2CCc3c(cc(Cn4ccnc4NC)cc3C3CC3)C2=O)ncc1C#N [Example 82, (R)-6-(1-(5-cyclopropyl-7-((2-(methylamino)-1H-imidazol-1-yl)methyl)-1-oxo-3,4-dihydroisoquinolin-2(1H)-yl)ethyl)-4-ethoxynicotinonitrile]	0.01 to 1	0.01 to 1	0.01 to 1
CCOc1cc([C@H](C)N2CCc3c(cc(Cn4ccnc4NC)cc3C3CC3)C2=O)ncc1C#N [Example 83, (S)-6-(1-(5-cyclopropyl-7-((2-(methylamino)-1H-imidazol-1-yl)methyl)-1-oxo-3,4-dihydroisoquinolin-2(1H)-yl)ethyl)-4-ethoxynicotinonitrile]	0.01 to 1	0.01 to 1	0.01 to 1
CNc1nccn1Cc1cc2c(c(C3CC3)c1)CCN([C@@H](C)c1cc(OC)c(F)cn1)C2=O [Example 85, (S)-5-cyclopropyl-2-(1-(5-fluoro-4-methoxypyridin-2-yl)ethyl)-7-((2-(methylamino)-1H-imidazol-1-yl)methyl)-3,4-dihydroisoquinolin-1(2H)-one]	0.01 to 1	0.01 to 1	0.01 to 1
CCn1nc(CN2CCc3c(cc(Cn4ccnc4NC)cc3C3CC3)C2=O)cc1OC [Example 86, 5-cyclopropyl-2-((1-ethyl-5-methoxy-1H-pyrazol-3-yl)methyl)-7-((2-(methylamino)-1H-imidazol-1-yl)methyl)-3,4-dihydroisoquinolin-1(2H)-one]	0.01 to 1	0.01 to 1	0.01 to 1
CNc1nccn1Cc1cc2c(c(N3CCCC3)c1)CCN([C@@H](C)c1cc(OC)c(F)cn1)C2=O [Example 89, (S)-2-(1-(5-fluoro-4-methoxypyridin-2-yl)ethyl)-7-((2-(methylamino)-1H-imidazol-1-yl)methyl)-5-(pyrrolidin-1-yl)-3,4-dihydroisoquinolin-1(2H)-one]	0.01 to 1	< 0.01	0.01 to 1
CCOc1cc([C@H](C)N2CCc3ccc(Cn4ccnc4NC)cc3C2=O)cnc1C#N [Example 97, (S)-3-ethoxy-5-(1-(7-((2-(methylamino)-1H-imidazol-1-yl)methyl)-1-oxo-3,4-dihydroisoquinolin-2(1H)-yl)ethyl)picolinonitrile]	0.01 to 1	0.01 to 1	0.01 to 1
